Patent US8128802B2, “Analysis apparatus and analysis method for glycosylated hemoglobin” (OJI Paper Co., Ltd, priority 2005, dated 2012)

Legend:
Type in all cases: biochemical
[1] = test system: fructosyl amino acid oxidase; experiment: Characteristics of fructosyl amino acid oxidase-immobilized column (Example 5); details: sample concentration 10 mM; buffer pH 8.0, 37° C.
Protocol: FIG. 1 was the flow type assay apparatus with one flow path. The buffer A was pumped out from the buffer tank (1) using the pump (2), and a 5 μL portion of the sample was injected using the valve (4). The fructosyl amino acid oxidase-immobilized column was placed in the first immobilized enzyme column (17) and the electrode for hydrogen peroxide was placed downstream. The second immobilized enzyme column (19), the second electrode for hydrogen peroxide (20), the protease-immobilized column (14) and the flow type calorimeter (16) were not disposed. The injected sample transferred with the flowing buffer, passed through the mixing coil (15) in the incubator (13), and thus the sample temperature was adjusted and the sample was mixed with the buffer. The sample passed through the fructosyl amino acid oxidase-immobilized column (17) and the electrode for hydrogen peroxide (18), hydrogen peroxide was produced from fructosyl valine in the sample, and the change of the current was detected.
The composition of the buffer for this assay apparatus contained 100 mM phosphoric acid, 50 mM potassium chloride and 1 mM sodium azide, and its pH was 8.0.
The flow rate of the buffer was 1.0 mL/minute, and the temperature in the incubator was 37° C.
Using the assay apparatus 1 mentioned in (3), a 5 μL portion of fructosyl glycine was injected, and the characteristics of the fructosyl amino acid oxidase-immobilized column was examined.
When pH in the buffer was 7.0, 7.5, 8.0, 8.5 or 9.0, the activity in the oxidation of fructosyl glycine was measured.

[2] = test system: fructosyl amino acid oxidase; experiment: Substrate specificity of fructosyl amino acid oxidase-immobilized column (Example 3); details: buffers pH 8.0; for Relative response value: normalized to 100 for the response to fructosyl glycine, 37° C., dialysis module
Source text: The buffer was removed as far as possible. […] The support immobilized enzyme was packed into the column (internal diameter: 3.5 mm, length: 30 mm) to give the fructosyl amino acid oxidase-immobilized column. In the assay apparatus shown in FIG. 2, the flow type calorimeter (16), the protease-immobilized column (14) and the first immobilized enzyme column (17) were not disposed, and the electrode for glucose was placed in the electrode for hydrogen peroxide (18), the fructosyl amino acid oxidase-immobilized column in the second immobilized enzyme column (19), and the electrode for hydrogen peroxide in the electrode for hydrogen peroxide (20). The buffer B was pumped out from the buffer tank (24) using the pump (25), and a 100 μL portion of the sample was injected using the valve (4). […] Since the buffer A was pumped out from the buffer tank (1) by the pump (2), the components with low molecular weight in the sample dialyzed in the dialysis module (27) passed through the electrode for glucose (18), the fructosyl amino acid oxidase-immobilized column (19) and the electrode for hydrogen peroxide (20), and hydrogen peroxide from glucose and fructosyl amino acid in the sample was detected. […] The temperature in the incubator was 37° C. The substrate specificity of fructosyl amino acid oxidase-immobilized column for various fructosyl amino acids, fructosyl peptides, amino acids and sugars was examined using the assay apparatus mentioned in (4) when pH of the buffers was 8.0.

[3] = test system: fructosyl peptide oxidase; experiment: Substrate specificity, pH profile and stability of fructosyl peptide oxidase-immobilized column (Example 1); details: for Relative activity (%) pH 6.0: buffer pH 6.0; for Relative activity (%) pH 6.0 / Relative activity (%) pH 7.0 / Relative activity (%) pH 8.0: normalized to 100 for the response to fructosyl valine at each pH, 30° C.; for Relative activity (%) pH 7.0: buffer pH 7.0; for Relative activity (%) pH 8.0: buffer pH 8.0
Protocol: Firebrick powder (150 mg, 30 to 60 meshes) was thoroughly dried, immersed in a 10% solution of γ-aminopropyltriethoxysilane in anhydrous toluene for one hour, then thoroughly washed with anhydrous toluene and dried. The aminosilane-modified support was immersed in a 5% aqueous glutaraldehyde solution for one hour, and then thoroughly washed with distilled water, followed by substitution with 100 mM sodium phosphate buffer (pH 7.0). The buffer was removed as far as possible. A solution ([…]) of fructosyl peptide oxidase (140 units/mL, from Kikkoman Co.) in 100 mM sodium phosphate buffer (pH 7.0) was contacted with the formylated firebrick powder, and then incubated at 0 to 4° C. for one day for the enzyme immobilization. The support immobilized enzyme was packed into a column (internal diameter: 3.5 mm, length: 30 mm) to give the fructosyl peptide oxidase-immobilized column.
The buffer was pumped out from a buffer tank (1) using a pump (2), and 5 μL of a sample was injected using a valve (4). A protease-immobilized column (14), a flow type calorimeter (16), a second immobilized enzyme column (19) and a second electrode for hydrogen peroxide (20) were not placed, and a fructosyl peptide oxidase-immobilized column was placed as a first immobilized enzyme column (17), followed by an electrode for hydrogen peroxide (18) downstream thereof. The injected sample transferred with the flowing buffer, passed through a mixing coil (15) inside an incubator (13), and thus the sample temperature was adjusted and the sample was mixed with the buffer. The sample passed through the fructosyl peptide oxidase-immobilized column (17) and the electrode for hydrogen peroxide (18) to produce hydrogen peroxide from fructosyl valylhistidine in the sample, and then the change of the current was detected.
A composition of the buffer used in this assay apparatus contained 100 mM phosphoric acid, 50 mM potassium chloride and 1 mM sodium azide, and its pH was 7.0.
(§1) The flow rate of the buffer was 1.0 mL/minute, and the temperature in the incubator was 30° C.
Using the assay apparatus described in (3), a 5 μL portion of fructosyl glycine, fructosyl valine or fructosyl valylhistidine was injected, and the characteristics of the fructosyl peptide oxidase-immobilized column was examined.
When pH of the buffer was 6.0, 7.0 or 8.0, the assay results of the activity for the oxidation of fructosyl glycine (FG), fructosyl valine (FV) or fructosyl valylhistidine (FVH) were shown in FIG. 3. For fructosyl glycine the activity was high at pH 8.0, but the activity at pH 6.0 was decreased to about 50% of that at pH 8.0. For fructosyl valine and fructosyl valylhistidine, the activity was high at pH 6.0 and 7.0.
Response values in Table 1 were normalized to 100 for the response to fructosyl valine at each pH.

[4] = test system: fructosyl peptide oxidase; experiment: Substrate specificity of fructosyl peptide oxidase-immobilized column (Example 4); details: buffer A pH 7.0; normalized to 100 for the response to fructosyl valine; 30° C.
Protocol: In the same way as described in Example 1 (1), 150 mg of firebrick powder (30 to 60 meshes) was formylated. The solution (200 μL) of fructosyl peptide oxidase (140 units/mL, from Kikkoman Co.) in 100 mM sodium phosphate buffer (pH 7.0) was contacted with the formylated firebrick powder, and then incubated at 0 to 4° C. for one day for the enzyme immobilization.
In the assay apparatus shown in FIG. 1, the protease-immobilized column (14), the flow type calorimeter (16) and the first immobilized enzyme column (17) were not disposed, and the electrode for glucose was placed in the electrode for hydrogen peroxide (18), the fructosyl peptide oxidase-immobilized column in the second immobilized enzyme column (19), and the electrode for hydrogen peroxide in the electrode for hydrogen peroxide (20). The buffer A was pumped out from the buffer tank (1) by the pump (2), and a 5 μL portion of the sample was injected using the valve (4). The injected sample transferred with the flowing buffer A, passed through the mixing coil (15) in the incubator (13), and thus the sample temperature was adjusted and the sample was mixed with the buffer. And then the sample passed through the downstream electrode for glucose (18), fructosyl peptide oxidase-immobilized column (19) and an electrode for hydrogen peroxide (20), hydrogen peroxide was produced from fructosyl valylhistidine in the sample, and the change of the current was detected.
The composition of the buffer A for the assay apparatus contained 100 mM phosphoric acid, 50 mM potassium chloride and 1 mM sodium azide, and its pH was 7.0.
as §1
On fructosyl peptide oxidase-immobilized column, the substrate specificity for various fructosyl amino acids, fructosyl peptides, amino acids and sugars was examined using the assay apparatus mentioned in (4) when pH of the buffer A was 7.0. In the Table 4, the relative values were normalized to 100 for the response to fructosyl valine.

| Structure (SMILES) | Relative activity (%) [1] | Relative response value [2] | Relative activity (%) pH 6.0 [3] | Relative activity (%) pH 7.0 [3] | Relative activity (%) pH 8.0 [3] | Relative response value [4] | response of fructosyl amino acid oxidase-immobilized column [2] | pH at which activity was maximized ([3]; buffer pH 6.0, 7.0 or 8.0 tested) |
| --- | --- | --- | --- | --- | --- | --- | --- | --- |
| N=C(N)NCCC[C@H](N)C(=O)O [Arg] | 1.0% | 0.0 | 0% | 0% | 0% | 0.0 |  |  |
| OC[C@@H](O)[C@@H](O)[C@H](O)[C@@H](O)CO [D-Sorbitol] | 0.0% | 0.0 | 0% | 0% | 0% | 0.0 |  |  |
| O=C(CO)[C@@H](O)[C@H](O)[C@H](O)CO [Fructose] | 1.0% | 0.0 | 0% | 0% | 0% | 0.0 |  |  |
| CC(C)[C@H](NC1(CO)O[C@H](CO)[C@@H](O)[C@@H]1O)C(=O)N[C@@H](Cc1c[nH]cn1)C(=O)O (stereo partly drawn) [Fructosyl valyl histidine] |  | 1.3 | 88% | 87% | 66% | 86.8 | scarcely responded | 7.0 |
| O=C[C@H](O)[C@@H](O)[C@@H](O)[C@H](O)CO [Galactose] | 0.0% | 0.0 | 0% | 0% | 0% | 0.0 |  |  |
| NC(=O)CC[C@H](N)C(=O)O [Gln] | 6.0% | 0.2 | 0% | 0% | 0% | 0.0 | extremely small responses |  |
| N[C@@H](CCC(=O)O)C(=O)O [Glu] | 0.0% | 0.0 | 0% | 0% | 0% | 0.0 |  |  |
| NCC(=O)O [Gly] | 0.0% | 0.0 | 0% | 0% | 0% | 0.0 |  |  |
| OCC(O)CO [Glycerol] | 0.0% | 0.0 | 0% | 0% | 0% | 0.0 |  |  |
| N[C@@H](Cc1c[nH]cn1)C(=O)O [His] | 0.0% | 0.0 | 0% | 0% | 0% | 0.0 |  |  |

Second part, led by results:

| Relative activity (%) [1] | Relative response value [2] | Relative activity (%) pH 6.0 [3] | Relative activity (%) pH 7.0 [3] | Relative activity (%) pH 8.0 [3] | Relative response value [4] | Structure (SMILES) | response of fructosyl amino acid oxidase-immobilized column [2] | pH at which activity was maximized ([3]; buffer pH 6.0, 7.0 or 8.0 tested) |
| --- | --- | --- | --- | --- | --- | --- | --- | --- |
| 0.0% | 0.0 | 0% | 0% | 0% | 0.0 | C[C@H](N)C(=O)O [Ala] |  |  |
| 0.0% | 0.0 | 0% | 0% | 0% | 0.0 | NC(=O)C[C@H](N)C(=O)O [Asn] |  |  |
| 0.0% | 0.0 | 0% | 0% | 0% | 0.0 | N[C@@H](CC(=O)O)C(=O)O [Asp] |  |  |
| 507.0% |  |  |  |  |  | N[C@@H](CS)C(=O)O [Cys] |  |  |
| 0.0% | 0.0 | 0% | 0% | 0% | 0.0 | CC(C)C[C@H](N)C(=O)O [Leu] |  |  |
